Reference: paper PMC12116762, “Topobexin targets the Topoisomerase II ATPase domain for beta isoform-selective inhibition and anthracycline cardioprotection” (Nature Communications, 2025)
“And” between values parts separate entries of the source, which are not always exact repeats. Equal values may be shown once. Read-outs that look alike come from different tables or passages of the source.

Key:
Assay type in all cases: biochemical
recombinant human TOP2B [1] = molecular target: T1, recombinant human TOP2B (Homo sapiens, UniProt Q02880); test: DNA decatenation assay, recombinant TOP2B; settings: for SRbeta (SRTOP2B), decatenation activity: TOP2A IC50 divided by TOP2B IC50; for IC50: enzyme expressed in HEK293F, n=3
T1 construct: Using recombinant full-length human TOP2A and TOP2B enzymes; YFP (N, cleaved yes); made in house; host or cells: HEK293F
T1 sequence (Q02880 1-1621 isoform Q02880-2): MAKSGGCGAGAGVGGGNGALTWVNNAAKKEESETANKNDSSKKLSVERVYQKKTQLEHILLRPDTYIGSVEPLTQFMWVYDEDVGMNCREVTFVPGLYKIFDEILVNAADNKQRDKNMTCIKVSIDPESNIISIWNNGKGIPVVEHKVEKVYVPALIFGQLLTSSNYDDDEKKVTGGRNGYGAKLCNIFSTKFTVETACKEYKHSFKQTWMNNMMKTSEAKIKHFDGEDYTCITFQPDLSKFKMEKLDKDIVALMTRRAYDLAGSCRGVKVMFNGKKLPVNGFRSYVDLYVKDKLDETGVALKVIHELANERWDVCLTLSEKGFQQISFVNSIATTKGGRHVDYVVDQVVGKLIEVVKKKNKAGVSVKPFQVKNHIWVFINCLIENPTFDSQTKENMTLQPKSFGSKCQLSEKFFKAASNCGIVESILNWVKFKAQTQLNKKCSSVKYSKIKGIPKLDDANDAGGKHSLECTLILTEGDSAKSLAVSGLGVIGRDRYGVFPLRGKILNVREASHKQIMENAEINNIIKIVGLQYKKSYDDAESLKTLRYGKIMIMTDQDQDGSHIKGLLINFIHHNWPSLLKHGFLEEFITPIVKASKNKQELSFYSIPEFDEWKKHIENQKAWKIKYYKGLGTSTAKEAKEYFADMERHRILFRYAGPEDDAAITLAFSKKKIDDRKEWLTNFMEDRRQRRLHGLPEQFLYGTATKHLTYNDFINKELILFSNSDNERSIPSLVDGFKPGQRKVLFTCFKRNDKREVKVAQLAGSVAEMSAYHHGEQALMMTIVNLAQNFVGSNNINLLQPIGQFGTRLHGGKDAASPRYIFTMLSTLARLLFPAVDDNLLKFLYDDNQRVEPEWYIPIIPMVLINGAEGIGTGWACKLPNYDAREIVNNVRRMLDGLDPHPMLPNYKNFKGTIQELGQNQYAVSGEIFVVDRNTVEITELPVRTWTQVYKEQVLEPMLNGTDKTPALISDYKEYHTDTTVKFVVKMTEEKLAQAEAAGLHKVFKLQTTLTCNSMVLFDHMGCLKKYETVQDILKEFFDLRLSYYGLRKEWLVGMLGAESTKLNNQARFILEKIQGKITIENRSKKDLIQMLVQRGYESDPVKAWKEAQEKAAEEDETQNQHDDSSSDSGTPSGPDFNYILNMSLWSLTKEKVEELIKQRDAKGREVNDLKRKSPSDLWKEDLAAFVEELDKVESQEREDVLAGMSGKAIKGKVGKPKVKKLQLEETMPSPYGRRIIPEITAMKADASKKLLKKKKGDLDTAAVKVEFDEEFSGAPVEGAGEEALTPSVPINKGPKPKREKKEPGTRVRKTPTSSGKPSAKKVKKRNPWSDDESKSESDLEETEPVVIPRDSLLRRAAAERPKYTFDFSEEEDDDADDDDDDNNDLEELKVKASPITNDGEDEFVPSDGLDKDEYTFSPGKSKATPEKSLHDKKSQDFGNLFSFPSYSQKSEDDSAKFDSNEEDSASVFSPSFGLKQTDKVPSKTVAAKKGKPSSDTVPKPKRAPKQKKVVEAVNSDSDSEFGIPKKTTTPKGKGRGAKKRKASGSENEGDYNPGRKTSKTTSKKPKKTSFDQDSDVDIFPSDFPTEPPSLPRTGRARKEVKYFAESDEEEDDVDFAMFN
Protocol: The human topoisomerase II decatenation assay was performed to determine the inhibitory effects of BNS-22 and new compounds as previously described with minor modifications[14],[36]. The assay was performed using recombinant human TOP2A or TOP2B generated using the HEK293F YFP-tag expression system as previously described[18],[19],[36]. Briefly, plasmids encoding YFP-TOP2A or YFP-TOP2B were transfected into HEK293F cells (Catalog number 11625019, Thermofisher Scientific), and TOP2 proteins were isolated from cell lysates by anti-YFP nanobody affinity chromatography. After elution by TEV protease cleavage, TOP2 proteins were FPLC purified by sequential cation exchange and size exclusion chromatography. Plasmid encoding TOP2B C88Y was generated by round-the-horn PCR mutagenesis and the sequence was verified by full-plasmid sequencing. Purified TOP2 proteins were stored in a storage buffer containing 20 mM HEPES pH 7.5, 500 mM NaCl, 0.5 mM TCEP, 25% (v/v) glycerol at -80 °C. For decatenation assays, purified TOP2 proteins were incubated with 200 ng kDNA (Topogen) in a reaction buffer containing 50 mM Tris−HCl (pH 8), 100 mM NaCl, 10 mM MgCl2, 0.5 mM DTT, 2 mM ATP, 0.1 mM tris(2-carboxyethyl)phosphine (TCEP), 5% (v/v) glycerol, 70 μg/mL bovine serum albumin, and 1/10 volume of each compound diluted in 10% DMSO (final DMSO concentration 1%) for 40 min at 37 °C. The reaction was then stopped by the addition of gel loading buffer (0.5 volumes of 60% (w/v) glycerol, 60 mM EDTA, 20 mM Tris−HCl (pH 7.5), 0.5 mg/mL bromophenol blue) and the samples were placed on ice. Reaction products were resolved by agarose gel electrophoresis in TBE buffer containing GelRed stain (Biotium). Gels were visualized using an iBright CL1000 (Thermofisher Scientific). Band intensities were quantified using FIJI, and the signal of the treated samples was normalized to the value of the control (untreated sample; 100%) present on the same gel. The normalized signal of three independent measurements was then expressed as mean ± SD. Each presented data point was obtained from distinct sample. Normalized values were plotted as a function of inhibitor concentration to determine IC50 values by nonlinear regression with variable slope using Prism 9 (GraphPad).

recombinant human TOP2A = molecular target: T2, recombinant human TOP2A (Homo sapiens, UniProt P11388); test: In vitro ATPase activity of TOP2A (coupled assay); settings: for IC50: n=3
T2 construct: Using recombinant full-length human TOP2A and TOP2B enzymes; YFP (N, cleaved yes); made in house; host or cells: HEK293F
T2 sequence (P11388 whole entry): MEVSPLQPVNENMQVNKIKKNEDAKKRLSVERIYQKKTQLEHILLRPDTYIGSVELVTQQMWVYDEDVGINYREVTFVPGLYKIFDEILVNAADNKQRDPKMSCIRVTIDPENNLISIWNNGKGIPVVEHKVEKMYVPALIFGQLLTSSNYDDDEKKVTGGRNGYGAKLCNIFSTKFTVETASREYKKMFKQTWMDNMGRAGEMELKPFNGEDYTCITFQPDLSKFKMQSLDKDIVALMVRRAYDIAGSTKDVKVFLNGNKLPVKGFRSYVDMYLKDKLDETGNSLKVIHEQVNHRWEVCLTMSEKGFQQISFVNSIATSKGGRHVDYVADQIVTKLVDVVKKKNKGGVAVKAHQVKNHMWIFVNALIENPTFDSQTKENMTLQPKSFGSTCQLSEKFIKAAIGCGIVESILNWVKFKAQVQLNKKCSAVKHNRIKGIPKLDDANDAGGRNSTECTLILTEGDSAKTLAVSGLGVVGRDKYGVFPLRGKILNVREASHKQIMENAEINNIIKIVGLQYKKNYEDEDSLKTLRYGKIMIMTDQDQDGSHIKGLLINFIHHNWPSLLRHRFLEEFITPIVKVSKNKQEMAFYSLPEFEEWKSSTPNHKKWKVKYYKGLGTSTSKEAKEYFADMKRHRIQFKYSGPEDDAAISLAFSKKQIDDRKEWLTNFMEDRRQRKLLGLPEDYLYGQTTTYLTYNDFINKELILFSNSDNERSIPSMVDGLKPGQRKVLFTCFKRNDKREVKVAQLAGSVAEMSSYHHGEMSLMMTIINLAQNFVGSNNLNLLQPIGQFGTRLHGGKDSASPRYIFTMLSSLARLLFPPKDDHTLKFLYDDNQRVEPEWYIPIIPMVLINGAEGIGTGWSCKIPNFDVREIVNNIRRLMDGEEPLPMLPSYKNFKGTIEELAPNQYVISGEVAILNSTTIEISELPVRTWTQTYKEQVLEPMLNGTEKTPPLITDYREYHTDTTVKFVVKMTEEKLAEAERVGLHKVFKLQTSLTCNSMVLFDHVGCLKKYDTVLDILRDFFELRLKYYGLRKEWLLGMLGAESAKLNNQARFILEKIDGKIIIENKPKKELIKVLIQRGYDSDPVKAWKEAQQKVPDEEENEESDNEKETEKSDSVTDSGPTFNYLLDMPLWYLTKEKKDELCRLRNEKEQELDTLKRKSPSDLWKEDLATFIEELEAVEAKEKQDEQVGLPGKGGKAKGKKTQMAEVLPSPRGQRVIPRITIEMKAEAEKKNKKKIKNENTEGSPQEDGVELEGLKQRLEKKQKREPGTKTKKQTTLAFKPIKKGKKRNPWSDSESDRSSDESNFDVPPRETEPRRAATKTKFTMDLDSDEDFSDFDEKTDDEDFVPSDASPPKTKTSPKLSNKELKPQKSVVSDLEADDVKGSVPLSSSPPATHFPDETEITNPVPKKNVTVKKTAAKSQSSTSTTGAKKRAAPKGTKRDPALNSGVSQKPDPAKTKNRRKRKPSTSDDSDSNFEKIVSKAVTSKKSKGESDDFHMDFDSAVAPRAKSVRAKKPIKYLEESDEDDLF
Protocol: (§1) Topoisomerase proteins were diluted to 500 nM in storage buffer containing 20 mM HEPES pH 7.5, 500 mM NaCl, 0.5 mM TCEP, 25% glycerol, and 0.2 mg/mL BSA prior to use. A coupled assay was used to measure TOP2-catalyzed ATP hydrolysis in vitro[37] in Costar 96-well plates (Corning Incorporated). […] Reaction plates were pre-warmed to 30 °C for 5 min and ATP was added last to initiate the reaction. The reaction plate was placed in a CLARIOstarPlus plate reader (BMG Labtech) to measure NADH fluorescence at 30 °C every 30 s over 120 cycles using a 340-60 excitation filter and a 480-100 emission filter. Background fluorescence signals calculated from wells containing no ATP were subtracted from each measurement. The slope of NADH fluorescence decay in each well was calculated using the MARS software (BMG Labtech) and reaction wells that lacked topoisomerase inhibitor to account for photobleaching of NADH fluorescence served as background subtraction. Each presented data point was obtained from distinct sample. Values were normalized to untreated controls and plotted as a function of inhibitor concentration to determine IC50 values using Prism 9 (GraphPad).

recombinant human TOP2B [2] = molecular target: T1, recombinant human TOP2B; test: In vitro ATPase activity of TOP2B (coupled assay); settings: for SRbeta (SRTOP2B), TOP2 ATPase activity: TOP2A IC50 divided by TOP2B IC50; for IC50: n=3
Protocol: as §1

[3] = independent replicates, read-out: Normalized % TOP2A activity, ATPase
[4] = independent replicates, normalized to 0 drug, read-out: Normalized % TOP2A activity
[5] = independent replicates, normalized to 0 drug, read-out: Normalized % TOP2B activity
[6] = independent replicates, read-out: Normalized % TOP2B activity, ATPase

Work on `CCCc1cc(=O)oc2c(C(=O)N3CCCc4ccccc43)c(OCCN3CCN(C)CC3)ccc12` [topobexin (9)] yielded a remaining activity at 0.039 µM (recombinant human TOP2B [1]; 0.039 μM, independent replicates, read-out: Normalized % TOP2B activity, decatenation) of 92.3%, a remaining activity at 0.313 µM (recombinant human TOP2B [1]; 0.313 μM, independent replicates, read-out: Normalized % TOP2B activity, decatenation) of 29.3% and a remaining activity at 0.625 µM (recombinant human TOP2B [1]; 0.625 μM, independent replicates, read-out: Normalized % TOP2B activity, decatenation) of 15.5%. The remaining activity at 1.25 µM (recombinant human TOP2B [1]; 1.250 μM, independent replicates, read-out: Normalized % TOP2B activity, decatenation) was 10.9%, the remaining activity at 2.5 µM (recombinant human TOP2B [1]; 2.500 μM, independent replicates, read-out: Normalized % TOP2B activity, decatenation) was 11.1% and the remaining activity at 5 µM (recombinant human TOP2B [1]; 5.000 μM, independent replicates, read-out: Normalized % TOP2B activity, decatenation) was 9.87%. For the same compound, the remaining activity at 20 µM (recombinant human TOP2B [1]; 20.000 μM, independent replicates, read-out: Normalized % TOP2B activity, decatenation) was 5.03%, the “SRbeta (SRTOP2B), decatenation activity” value (recombinant human TOP2B [1]) was 25 and the IC50 (recombinant human TOP2B [1]) was 0.19 µM. It also gave a remaining activity at 0.03125 µM (recombinant human TOP2A; [3]) of 89.4%, a remaining activity at 0.0625 µM (recombinant human TOP2A; [4]) of 89.1% and a remaining activity at 0.0625 µM (recombinant human TOP2A; [3]) of 92.8%. The remaining activity at 0.125 µM (recombinant human TOP2A; [4]) was 88.8%, the remaining activity at 0.25 µM (recombinant human TOP2A; [4]) was 87.4% and the remaining activity at 0.25 µM (recombinant human TOP2A; [3]) was 79.6%. For the same compound, the remaining activity at 0.5 µM (recombinant human TOP2A; [4]) was 81.9%, the remaining activity at 1 µM (recombinant human TOP2A; [4]) was 73.3% and the remaining activity at 2 µM (recombinant human TOP2A; [4]) was 53.8%. It also gave a remaining activity at 4 µM (recombinant human TOP2A; [4]) of 26.2%, a remaining activity at 8 µM (recombinant human TOP2A; [4]) of 5.71% and a remaining activity at 8 µM (recombinant human TOP2A; [3]) of 28.6%. It also gave a remaining activity at 16 µM (recombinant human TOP2A; 16 μM, independent replicates, read-out: Normalized % TOP2A activity, ATPase) of 14.4%, an IC50 (recombinant human TOP2A) of 4.09 µM and a remaining activity at 0.0625 µM (recombinant human TOP2B [2]; [5]) of 96.9%. The remaining activity at 0.125 µM (recombinant human TOP2B [2]; [5]) was 95.3%, the remaining activity at 0.25 µM (recombinant human TOP2B [2]; [5]) was 95.6% and the remaining activity at 0.5 µM (recombinant human TOP2B [2]; [5]) was 87%. For the same compound, the remaining activity at 1 µM (recombinant human TOP2B [2]; [5]) was 74%, the remaining activity at 1 µM (recombinant human TOP2B [2]; [6]) was 16.4% and the remaining activity at 2 µM (recombinant human TOP2B [2]; [5]) was 48.9%. For the same compound, the remaining activity at 4 µM (recombinant human TOP2B [2]; [5]) was 23.7%, the remaining activity at 8 µM (recombinant human TOP2B [2]; [5]) was 9.64% and the “SRbeta (SRTOP2B), TOP2 ATPase activity” value (recombinant human TOP2B [2]) was 12. It also gave an IC50 (recombinant human TOP2B [2]) of 0.35 µM.
`CCCc1cc(=O)oc2c(C(=O)N3CCCc4ccccc43)c(OCCO)ccc12` [5c] gave a remaining activity at 0.059 µM (recombinant human TOP2B [1]; 0.059 μM, independent replicates, read-out: Normalized % TOP2B activity, decatenation) of 106%, a remaining activity at 0.117 µM (recombinant human TOP2B [1]; 0.117 μM, independent replicates, read-out: Normalized % TOP2B activity, decatenation) of 112% and a remaining activity at 0.938 µM (recombinant human TOP2B [1]; 0.938 μM, independent replicates, read-out: Normalized % TOP2B activity, decatenation) of 66.9%. For the same compound, the remaining activity at 1.875 µM (recombinant human TOP2B [1]; 1.875 μM, independent replicates, read-out: Normalized % TOP2B activity, decatenation) was 29.8%, the “SRbeta (SRTOP2B), decatenation activity” value (recombinant human TOP2B [1]) was 2.2 and the IC50 (recombinant human TOP2B [1]) was 1.43 µM. It also gave a remaining activity at 0.03125 µM (recombinant human TOP2A; [3]) of 97.4%, a remaining activity at 0.0625 µM (recombinant human TOP2A; [3]) of 86.8% and a remaining activity at 0.125 µM (recombinant human TOP2A; [3]) of 79.9%. The remaining activity at 0.25 µM (recombinant human TOP2A; [3]) was 62.7%, the remaining activity at 0.5 µM (recombinant human TOP2A; [3]) was 45.9% and the remaining activity at 1 µM (recombinant human TOP2A; [3]) was 25.8%. The remaining activity at 2 µM (recombinant human TOP2A; [3]) was 11.6%, the remaining activity at 4 µM (recombinant human TOP2A; [3]) was 6.58% and the remaining activity at 8 µM (recombinant human TOP2A; [3]) was 3.17%. For the same compound, the IC50 (recombinant human TOP2A) was 1.54 µM, the remaining activity at 0.03125 µM (recombinant human TOP2B [2]; 0.03125 μM, independent replicates, read-out: Normalized % TOP2B activity, ATPase) was 99.9% and the remaining activity at 0.0625 µM (recombinant human TOP2B [2]; [6]) was 98.5%. For the same compound, the remaining activity at 0.125 µM (recombinant human TOP2B [2]; [6]) was 96.8%, the remaining activity at 0.25 µM (recombinant human TOP2B [2]; [6]) was 89.9% and the remaining activity at 0.5 µM (recombinant human TOP2B [2]; [6]) was 77%. It also gave a remaining activity at 1 µM (recombinant human TOP2B [2]; [6]) of 61.7%, a remaining activity at 2 µM (recombinant human TOP2B [2]; [6]) of 39.1% and a remaining activity at 4 µM (recombinant human TOP2B [2]; [6]) of 16.4%. For the same compound, the remaining activity at 8 µM (recombinant human TOP2B [2]; [6]) was 6.04%, the “SRbeta (SRTOP2B), TOP2 ATPase activity” value (recombinant human TOP2B [2]) was 3.8 and the IC50 (recombinant human TOP2B [2]) was 0.4 µM and 0.41 µM.
